For 1 molecule, LD50 results are on record in EP0501442B1, “8-chloro-benzothiazepine-compound for prophylaxis and treatment of sequelae of cerebral neurocyte necrosis” (priority 1991, dated 1992).

A short description of the data set: Acute oral toxicity (50 % lethal dose) in mice. Particulars: mouse, in vivo, orally administered to mice, read-out: 50 % lethal dose (LD₅₀). How it is done:
Further, the benzothiazepine derivative (I) or a pharmacologically acceptable salt thereof has low toxicity and high safety. For example, when 2-(4-methoxyphenyl)-3-acetoxy-5-[2-(dimethylamino)ethyl]-8-chloro-2,3-dihydro-1,5-benzothiazepin-4(5H)-one·maleate is orally administered to mice, its 50 % lethal dose (LD₅₀) was about 800 mg/kg.

Regarding `COc1ccc([C@@H]2Sc3cc(Cl)ccc3N(CCN(C)C)C(=O)[C@@H]2OC(C)=O)cc1` [(+)-cis-2-(4-methoxyphenyl)-3-acetoxy-5-[2-(dimethylamino)ethyl]-8-chloro-2,3-dihydro-1,5-benzothiazepin-4(5H)-one·maleate], the LD50 was approximately 800 mg/kg.
